In patent publication US11475578B2, “Method for analyzing behavior of cell, and use thereof” (TEIKYO UNIVERSITY, priority 2018, dated 2022):

How the values were obtained:
epidermal keratinocytes [1] = assay: Monitoring of culture conditions by automatic cell tracking of epidermal keratinocyte colonies; assay type: cell-based, human; settings: 10 ng/ml EGF added to the medium
Description: Human epidermal keratinocytes originating in neonate (purchased from KURABO) were cultured under the conditions of 37° C. and 10% CO2 using the mouse 3T3 fibroblasts treated with mitomycin C as feeder cells (refer to the reference for details of the method).
The cultured epidermal keratinocytes were subcultured on a 35-mm glass bottom dish, and time-lapse imaging was performed under the conditions of 37° C. and 10% CO2 in which imaging was automatically performed every 5 minutes with Olympus FV10i.
The automatic tracking system was applied to monitoring of culture conditions of epidermal keratinocytes (obtained and cultured in the same manner as that of Example 1-1).
Behaviors of epidermal keratinocytes under different culture conditions were compared in the same manner as that of Example 1-2. The cell locomotions were compared. Those of the case where the medium was exchanged on the day 4 of the culture (feeding) and the case where the medium was not exchanged (no feeding) were compared. […] In the lower diagrams of FIG. 14, positions of the nuclei at each time point are shown with lines.
In the culture system of the inventors of the present invention, epidermal keratinocytes show a spiral migration pattern in colonies. As clearly seen from FIG. 15, the trajectory lines in 2D images (upper side) and 3D images (lower side) twisted. […]

epidermal keratinocytes [2] = settings: as previously reported [7]; cited from earlier work

epidermal growth factor [EGF, epidermal growth factor (EGF) (Up state, #01-107) added to the culture medium]
migration speed (epidermal keratinocytes [1]): did not change
migration pattern (epidermal keratinocytes [1]; without EGF, spiral migration pattern in colonies): changed
migration of epidermal keratinocytes (epidermal keratinocytes [2]): induces migration of epidermal keratinocytes to the outside
